Laboratory results as given in patent US9416154B2, “5′-substituted nucleoside derivatives and methods of use thereof for the treatment of viral diseases” (priority 2011, dated 2016).

What was measured:
[1] = target: HCV NS5B RNA-dependent RNA polymerase (1b-BKΔ55) (Hepatitis C virus genotype 1b (isolate BK) (HCV), UniProt P26663); assay: HCV NS5B polymerase inhibition assay (radiolabeled nucleotide incorporation); format: biochemical; conditions: 5 nM NS5B (1b-BKΔ55), [33P]-CTP incorporation, room temperature 1 hour
Protocol: The ability of the nucleoside triphosphate derivatives to inhibit the enzymatic activity of the HCV NS5B RNA-dependent RNA polymerase was measured in a radiolabeled nucleotide incorporation assay modified from the method described in International Publication No. WO2002/057287. Briefly, 50 μL reactions containing 20 mM HEPES (pH 7.3), 7.5 mM DTT, 20 units/mL RNasIN, 1 μM each of ATP, GTP, UTP and CTP, 20 μCi/mL [^33P]-CTP, 10 mM MgCl2, 60 mM NaCl, 100 μg/ml BSA, 0.021 μM DCoH heteropolymer RNA template and 5 nM NS5B (1b-BKΔ55) enzyme were incubated at room temperature for 1 hour. Assay was terminated by the addition of 500 mM EDTA (50 μL). The reaction mixture was transferred to a Millipore DE81 filter plate and the incorporation of labeled CTP was determined using Packard TopCount. Compound IC50 values were calculated from experiments with 10 serial 3-fold dilutions of the inhibitor in duplicate.

[2] = test system: Huh 7 hepatoma cells containing the subgenomic HCV replicon; assay: Cytotoxicity (MTS assay or GAPDH RNA readout); format: cell-based
Protocol: The effect of the nucleoside derivatives on the proliferation and metabolism of Huh 7 hepatoma cells containing the subgenomic HCV replicon was measured using the MTS assay. Briefly, cells were seeded and dosed with compounds exactly as described in Example 13 above, for replicon EC50 determination. After a 3-day compound incubation period, the MTS assay was performed in accordance with the manufacturer's protocol for the CellTiter 96 Aqueous One Solution Cell Proliferation Assay (Promega, Catalog #G358). Alternatively, after a 3-day compound incubation, the amount of glyceraldehyde-3-phosphate dehydrogenase (GAPDH) RNA in replicon-containing Huh 7 cells was determined using qRT-PCR. CC50 values were derived from 10 serial 2-fold dilutions of the inhibitor in duplicate that yielded 50% inhibition of the MTS or GAPDH RNA readout by comparison with cells treated with vehicle control.

HCV replicon (1b) = assay: Cell-based HCV replicon assay; conditions: replicon cells, 3-day incubation, replicon RNA by real time PCR (Taqman); read-out: 1b EC50
Protocol: To measure cell-based anti-HCV activity of selected compounds of the present invention, replicon cells were seeded at 5000 cells/well in 96-well collagen I-coated Nunc plates in the presence of the test compound. Various concentrations of test compound, typically in 10 serial 2-fold dilutions, were added to the assay mixture, with the starting concentration ranging from 250 μM to 1 μM. The final concentration of dimethylsulfoxide was 0.5%, fetal bovine serum was 5%, in the assay media. Cells were harvested on day 3 by the addition of 1× cell lysis buffer (Ambion cat #8721). The replicon RNA level was measured using real time PCR (Taqman assay). The amplicon was located in 5B. The PCR primers were: 5B.2F, ATGGACAGGCGCCCTGA (SEQ ID. NO. 1); 5B.2R, […] (SEQ ID. NO. 2); the probe sequence was FAM-labeled CACGCCATGCGCTGCGG (SEQ ID. NO. 3). GAPDH RNA was used as endogenous control and was amplified in the same reaction as NS5B (multiplex PCR) using primers and VIC-labeled probe recommended by the manufacturer (PE Applied Biosystem). The real-time RT-PCR reactions were run on ABI PRISM 7900HT Sequence Detection System using the following program: 48° C. for 30 minutes, 95° C. for 10 minutes, 40 cycles of 95° C. for 15 sec, 60° C. for 1 minute. The ΔCT values (CT5B-CTGAPDH) were plotted against the concentration of test compound and fitted to the sigmoid dose-response model using XLfit4 (MDL). EC50 was defined as the concentration of inhibitor necessary to achieve ΔCT=1 over the projected baseline; EC90 the concentration necessary to achieve ΔCT=3.2 over the baseline. Alternatively, to quantitate the absolute amount of replicon RNA, a standard curve was established by including serially diluted T7 transcripts of replicon RNA in the Taqman assay. All Taqman reagents were from PE Applied Biosystems. Such an assay procedure was described in detail in e.g. Malcolm et al., Antimicrobial Agents and Chemotherapy 50: 1013-1020 (2006).

HCV NS5B RNA-dependent RNA polymerase (1b-BKΔ55), sequence (P26663 2420-2955): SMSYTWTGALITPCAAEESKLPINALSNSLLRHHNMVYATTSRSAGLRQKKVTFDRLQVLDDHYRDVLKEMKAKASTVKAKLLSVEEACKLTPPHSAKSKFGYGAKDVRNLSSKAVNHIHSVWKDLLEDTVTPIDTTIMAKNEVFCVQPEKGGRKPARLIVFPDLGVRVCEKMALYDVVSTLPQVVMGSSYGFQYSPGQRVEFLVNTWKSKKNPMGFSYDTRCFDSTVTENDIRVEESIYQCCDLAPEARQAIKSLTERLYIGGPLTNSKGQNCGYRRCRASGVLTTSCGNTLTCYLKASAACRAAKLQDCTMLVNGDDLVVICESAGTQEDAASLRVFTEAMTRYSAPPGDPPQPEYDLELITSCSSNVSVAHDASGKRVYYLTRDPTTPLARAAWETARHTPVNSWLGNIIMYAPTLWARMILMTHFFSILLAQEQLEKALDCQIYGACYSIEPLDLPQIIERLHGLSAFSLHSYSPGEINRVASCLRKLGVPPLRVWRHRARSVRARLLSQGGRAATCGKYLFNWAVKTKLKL

Row | SMILES | IC50 [1] | CC50 [2] | EC50 (HCV replicon (1b))
1 | CC(OP(=O)(O)OP(=O)(O)OP(=O)(O)O)[C@H]1O[C@@H](n2ccc3c(N)ncnc32)[C@](C)(F)[C@@H]1O (some centres unmarked) [Compound 15] | > 20 µM |  | 
2 | C[C@H](OP(=O)(O)OP(=O)(O)OP(=O)(O)O)[C@H]1O[C@@H](n2ccc3c(N)ncnc32)[C@](C)(O)[C@@H]1O [Compound 37] | 40 µM |  | 
3 | C[C@@H](OP(=O)(O)OP(=O)(O)OP(=O)(O)O)[C@H]1O[C@@H](n2ccc3c(N)ncnc32)[C@](C)(O)[C@@H]1O [Compound 36] | 65 µM |  | 
4 | C[C@@H](O)C1O[C@@H](n2cc(F)c3c(N)ncnc32)[C@](C)(F)[C@@H]1O (some centres unmarked) [Compound 26] |  | > 100 µM | > 100 µM
